According to patent US6949542B2, “Dihydro-benzo[b][1,4]diazepin-2-one derivatives” (Hoffman-La Roche Inc., priority 2002, dated 2005):

melting point | SMILES
209 °C | CCc1cc(-c2cccc(C3=Nc4cc(OCC(F)(F)F)c(C(F)(F)F)cc4NC(=O)C3)c2)cc(C)n1 [Example 251, 4-[3-(2-Ethyl-6-methyl-pyridin-4-yl)-phenyl]-7-(2,2,2-trifluoro-ethoxy)-8-trifluoromethyl-1,3-dihydro-benzo[b][1,4]diazepin-2-one]
257 °C | Cc1cc(-c2cccc(C3=Nc4cc(C)c(C(F)(F)F)cc4NC(=O)C3)c2)cc(C2CC2)n1 [Example 257, 4-[3-(2-Cyclopropyl-6-methyl-pyridin-4-yl)-phenyl]-7-methyl-8-trifluoromethyl-1,3-dihydro-benzo[b][1,4]diazepin-2-one]
181 °C | O=C1CC(c2cccc(-c3ccnc(C4CC4)c3)c2)=Nc2ccc(C(F)(F)F)cc2N1 [Example 346, 4-[3-(2-Cyclopropyl-pyridin-4-yl)-phenyl]-8-trifluoromethyl-1,3-dihydro-benzo[b][1,4]diazepin-2-one]
210 to 215 °C | COc1ccc(-c2cccc(C3=Nc4ccc(C(F)(F)F)cc4NC(=O)C3)c2)cn1 [Example 50, 4-[3-(6-Methoxy-pyridin-3-yl)-phenyl]-8-trifluoromethyl-1,3-dihydro-benzo[b][1,4]diazepin-2-one]
232 °C | Cc1cc2c(cc1C(F)(F)F)NC(=O)CC(c1cccc(-c3ccnc(C4CC4)c3)c1)=N2 [Example 347, 4-[3-(2-Cyclopropyl-pyridin-4-yl)-phenyl]-7-methyl-8-trifluoromethyl-1,3-dihydro-benzo[b][1,4]diazepin-2-one]
188 °C | Cc1cc2c(cc1C(F)(F)F)NC(=O)CC(c1cccc(-c3ccnc(CN(C)CC(C)C)c3)c1)=N2 [Example 360, 4-(3-{2-[(Isobutyl-methyl-amino)-methyl]-pyridin-4-yl}-phenyl)-7-methyl-8-trifluoromethyl-1,3-dihydro-benzo[b][1,4]diazepin-2-one]
215 °C | CCOc1cc2c(cc1C(F)(F)F)NC(=O)CC(c1cccc(-c3ccnc(N4CCCC4)c3)c1)=N2 [Example 390, 7-Ethoxy-4-[3-(2-pyrrolidin-1-yl-pyridin-4-yl)-phenyl]-8-trifluoromethyl-1,3-dihydro-benzo[b][1,4]diazepin-2-one]
199 °C | O=C1CC(c2cccc(-c3ccnc(CO)c3)c2)=Nc2cc(Cl)c(C(F)(F)F)cc2N1 [Example 284, 7-Chloro-4-[3-(2-hydroxymethyl-pyridin-4-yl)-phenyl]-8-trifluoromethyl-1,3-dihydro benzo[b][1,4]diazepin-2-one]
209 °C | Cc1cc(-c2cccc(C3=Nc4cc(C(F)(F)F)c(C(F)(F)F)cc4NC(=O)C3)c2)ccn1 [Example 414, 4-[3-(2-Methyl-pyridin-4-yl)-phenyl]-7,8-bis-trifluoromethyl-1,3-dihydro-benzo[b][1,4]diazepin-2-one]
163 °C | Cc1cc(-c2cccc(C3=Nc4cc(Cl)c(C(F)(F)F)cc4NC(=O)C3)c2)cc(CO)n1 [Example 403, 7-Chloro-4-[3-(2-hydroxymethyl-6-methyl-pyridin-4-yl)-phenyl]-8-trifluoromethyl-1,3-dihydro-benzo[b][1,4]diazepin-2-one]
234 to 237 °C | N#Cc1ccc(-c2cccc(C3=Nc4ccc(C(F)(F)F)cc4NC(=O)C3)c2)cn1 [Example 204, 5-[3-(4-Oxo-7-trifluoromethyl-4,5-dihydro-3H-benzo[b][1,4]diazepin-2-yl)-phenyl]-pyridine-2-carbonitrile]
242 °C | O=C1CC(c2cccc(-c3ccccn3)c2)=Nc2ccc(C#Cc3ccccc3)cc2N1 [Example 164, 8-Phenylethynyl-4-(3-pyridin-2-yl-phenyl)-1,3-dihydro-benzo[b][1,4]diazepin-2-one]
130 °C | CC(C)CN(C)c1cc2c(cc1C(F)(F)F)NC(=O)CC(c1cccc(-c3ccnc(CO)c3)c1)=N2 [Example 366, 4-[3-(2-Hydroxymethyl-pyridin-4-yl)-phenyl]-7-(isobutyl-methyl-amino)-8-trifluoromethyl-1,3-dihydro-benzo[b][1,4]diazepin-2-one]
208 °C | CCc1cc(-c2cccc(C3=Nc4ccc(C(F)(F)F)cc4NC(=O)C3)c2)ccn1 [Example 155, 4-[3-(2-Ethyl-pyridin-4-yl)-phenyl]-8-trifluoromethyl-1,3-dihydro benzo[b][1,4]diazepin-2-one]
162 °C | CCCc1cc2c(cc1C(F)(F)F)NC(=O)CC(c1cccc(-c3cccnc3)c1)=N2 [Example 230, 7-Propyl-4-(3-pyridin-3-yl-phenyl)-8-trifluoromethyl-1,3-dihydro-benzo[b][1,4]diazepin-2-one]
119 °C | Cc1cc(C2CC2)ncc1-c1cccc(C2=Nc3ccc(C(F)(F)F)cc3NC(=O)C2)c1 [Example 344, 4-[3-(6-Cyclopropyl-4-methyl-pyridin-3-yl)-phenyl]-8-trifluoromethyl-1,3-dihydro-benzo[b][1,4]diazepin-2-one]
225 °C (dec.) | COc1cc2c(cc1C(F)(F)F)NC(=O)CC(c1cccc(-c3ccncc3)c1)=N2 [Example 35, 7-Methoxy-4-(3-pyridin-4-yl-phenyl)-8-trifluoromethyl-1,3-dihydro-benzo[b][1,4]diazepin-2-one]

melting point | SMILES
219 to 221 °C | O=C1CC(c2cccc(-c3cccnc3)c2)=Nc2cc(N3CCCC3)c(C(F)(F)F)cc2N1 [Example 187, 4-(3-Pyridin-3-yl-phenyl)-7-pyrrolidin-1-yl-8-trifluoromethyl-1,3-dihydro-benzo[b][1,4]diazepin-2-one]
244 °C | CCOc1cc2c(cc1C(F)(F)F)NC(=O)CC(c1cccc(-c3ccnc(CC)c3)c1)=N2 [Example 159, 4-[3-(2-Ethyl-pyridin-4-yl)-phenyl]-7-ethoxy-8-trifluoromethyl-1,3-dihydro-benzo[b][1,4]diazepin-2-one]
232 °C | Cc1cc2c(cc1Cl)NC(=O)CC(c1cccc(-c3cnccn3)c1)=N2 [Example 86, 8-Chloro-7-methyl-4-(3-pyrazin-2-yl-phenyl)-1,3-dihydro-benzo[b][1,4]diazepin-2-one]
218 °C | O=C1CC(c2cccc(-c3ccnc(C4CC4)c3)c2)=Nc2cc(OCC(F)(F)F)c(C(F)(F)F)cc2N1 [Example 349, 4-[3-(2-Cyclopropyl-pyridin-4-yl)-phenyl]-7-(2,2,2-trifluoro-ethoxy)-8-trifluoromethyl-1,3-dihydro-benzo[b][1,4]diazepin-2-one]
178 to 180 °C | O=C1CC(c2cccc(-c3ccc(C4CC4)nc3)c2)=Nc2cc(OCC(F)(F)F)ccc2N1 [Example 176, 4-[3-(6-Cyclopropyl-pyridin-3-yl)-phenyl]-7-(2,2,2-trifluoro-ethoxy)-1,3-dihydro-benzo[b][1,4]diazepin-2-one]
210 to 217 °C | CCc1cc2c(cc1C(F)(F)F)NC(=O)CC(c1cccc(-c3ccnc(C#N)c3)c1)=N2 [Example 210, 4-[3-(8-Ethyl-4-oxo-7-trifluoromethyl-4,5-dihydro-3H-benzo[b][1,4]diazepin-2-yl)-phenyl]-pyridine-2-carbonitrile]
215 °C | Cc1cc(-c2cccc(C3=Nc4ccc(Cl)cc4NC(=O)C3)c2)ccn1 [Example 74, 8-Chloro-4-[3-(2-methyl-pyridin-4-yl)-phenyl]-1,3-dihydro-benzo[b][1,4]diazepin-2-one]
220 °C | Cc1cc(-c2cccc(C3=Nc4cc(C(F)(F)F)c(C(F)(F)F)cc4NC(=O)C3)c2)cc(C)n1 [Example 415, 4-[3-(2,6-Dimethyl-pyridin-4-yl)-phenyl]-7,8-bis-trifluoromethyl-1,3-dihydro-benzo[b][1,4]diazepin-2-one]
169 °C | CCc1cnc(C)cc1-c1cccc(C2=Nc3cc(OCC(F)(F)F)c(C(F)(F)F)cc3NC(=O)C2)c1 [Example 151, 4-[3-(5-ethyl-2-methyl-pyridin-4-yl)-phenyl]-7-(2,2,2-trifluoro-ethoxy)-8-trifluoromethyl-1,3-dihydro-benzo[b][1,4]diazepin-2-one]
216 °C | CCOc1cc2c(cc1C(F)(F)F)NC(=O)CC(c1cccc(-c3ccnc(CO)c3)c1)=N2 [Example 287, 4-[3-(2-Hydroxymethyl-pyridin-4-yl)-phenyl]-7-ethoxy-8-trifluoromethyl-1,3-dihydro-benzo[b][1,4]diazepin-2-one]
210 to 211 °C | O=C1CC(c2cccc(-c3cccnc3)c2)=Nc2ccccc2N1 [Example 34, 4-(3-Pyridin-3-yl-phenyl)-1,3-dihydro-benzo[b][1,4]diazepin-2-one]
250 to 253 °C | Cc1cc(-c2cccc(C3=Nc4cc(N(C)C)c(C(F)(F)F)cc4NC(=O)C3)c2)nc(N)n1 [Example 317, 4-[3-(2-Amino-6-methyl-pyrimidin-4-yl)-phenyl]-7-dimethylamino-8-trifluoromethyl-1,3-dihydro-benzo[b][1,4]diazepin-2-one]
182 °C | O=C1CC(c2cccc(-c3ccnc(CN4CCCC4)c3)c2)=Nc2cc(OCC(F)(F)F)c(C(F)(F)F)cc2N1 [Example 380, 4-[3-(2-Pyrrolidin-1-ylmethyl-pyridin-4-yl)-phenyl]-7-(2,2,2-trifluoro-ethoxy)-8-trifluoromethyl-1,3-dihydro-benzo[b][1,4]diazepin-2-one]
141 °C | COCc1cc(-c2cccc(C3=Nc4cc(N(C)CC(C)C)c(C(F)(F)F)cc4NC(=O)C3)c2)ccn1 [Example 398, 7-(Isobutyl-methyl-amino)-4-[3-(2-methoxymethyl-pyridin-4-yl)-phenyl]-8-trifluoromethyl-1,3-dihydro-benzo[b][1,4]diazepin-2-one]
235 °C | Cc1ccc(-c2cccc(C3=Nc4cc(C)c(C(F)(F)F)cc4NC(=O)C3)c2)cn1 [Example 237, 7-Methyl-4-[3-(6-methyl-pyridin-3-yl)-phenyl]-8-trifluoromethyl-1,3-dihydro-benzo[b][1,4]diazepin-2-one]
224 °C | COc1ccc(-c2cccc(C3=Nc4cc(N(C)C)c(C(F)(F)F)cc4NC(=O)C3)c2)nn1 [Example 40, 7-Dimethylamino-4-[3-(6-methoxy-pyridazin-3-yl)-phenyl]-8-trifluoromethyl-1,3-dihydro-benzo[b][1,4]diazepin-2-one]
